Test in all cases: microbe, parasite or virus in culture
Common to all, as to type: functional

The test system of experiment [1] is Escherichia coli. Particulars: DSM 8579, time 48 hrs.
Description: Antibiofilm activity against Escherichia coli DSM 8579 assessed as inhibition of bacterial metabolism within the biofilm at 80 ug/ml measured after 48 hrs by MTT assay relative to control
Experiment [2] concerns Listeria monocytogenes. The following applies: ATCC 7644, time 48 hrs.
Description: Antibiofilm activity against Listeria monocytogenes ATCC 7644 assessed as inhibition of biofilm formation at 4 ug/ml measured after 48 hrs by crystal violet staining based assay relative to control
Experiment [3] has as its system Escherichia coli. Particulars: DSM 8579, time 48 hrs. This is another data set of the same source.
Description: Antibiofilm activity against Escherichia coli DSM 8579 assessed as inhibition of biofilm formation at 80 ug/ml measured after 48 hrs by crystal violet staining based assay relative to control
Experiment [4] relates to Pseudomonas aeruginosa. The following applies: ATCC 50071, time 48 hrs.
Description: Antibiofilm activity against Pseudomonas aeruginosa ATCC 50071 assessed as inhibition of bacterial metabolism within the biofilm at 4 ug/ml measured after 48 hrs by MTT assay relative to control
Experiment [5] has as its system Escherichia coli. The following applies: DSM 8579, time 48 hrs. The source holds these as a separate data set.
Description: Antibiofilm activity against Escherichia coli DSM 8579 assessed as inhibition of biofilm formation at 40 ug/ml measured after 48 hrs by crystal violet staining based assay relative to control
The subject of experiment [6] is Listeria monocytogenes. Particulars: ATCC 7644, time 48 hrs. This is another data set of the same source.
Description: Antibiofilm activity against Listeria monocytogenes ATCC 7644 assessed as inhibition of bacterial metabolism within the biofilm at 4 ug/ml measured after 48 hrs by MTT assay relative to control
The subject of experiment [7] is Staphylococcus aureus. Particulars: ATCC 25923, time 48 hrs.
Description: Antibiofilm activity against Staphylococcus aureus ATCC 25923 assessed as inhibition of bacterial metabolism within the biofilm at 8 ug/ml measured after 48 hrs by MTT assay relative to control
In experiment [8] the test system is Staphylococcus aureus. Particulars: ATCC 25923, time 48 hrs. The source holds these as a separate data set.
Description: Antibiofilm activity against Staphylococcus aureus ATCC 25923 assessed as inhibition of biofilm formation at 4 ug/ml measured after 48 hrs by crystal violet staining based assay relative to control
The test system of experiment [9] is Pseudomonas aeruginosa. Particulars: ATCC 50071, time 48 hrs. This is another data set of the same source.
Description: Antibiofilm activity against Pseudomonas aeruginosa ATCC 50071 assessed as inhibition of biofilm formation at 4 ug/ml measured after 48 hrs by crystal violet staining based assay relative to control
Experiment [10] relates to Staphylococcus aureus. Particulars: ATCC 25923, time 48 hrs. This is another data set of the same source.
Description: Antibiofilm activity against Staphylococcus aureus ATCC 25923 assessed as inhibition of bacterial metabolism within the biofilm at 4 ug/ml measured after 48 hrs by MTT assay relative to control
For experiment [11], the system named is Staphylococcus aureus. The following applies: ATCC 25923, time 48 hrs. This is another data set of the same source.
Description: Antibiofilm activity against Staphylococcus aureus ATCC 25923 assessed as inhibition of biofilm formation at 8 ug/ml measured after 48 hrs by crystal violet staining based assay relative to control
The subject of experiment [12] is Listeria monocytogenes. Particulars: ATCC 7644, time 48 hrs. This is another data set of the same source.
Description: Antibiofilm activity against Listeria monocytogenes ATCC 7644 assessed as inhibition of bacterial metabolism within the biofilm at 8 ug/ml measured after 48 hrs by MTT assay relative to control
The subject of experiment [13] is Pseudomonas aeruginosa. The following applies: ATCC 50071, time 48 hrs. This is another data set of the same source.
Description: Antibiofilm activity against Pseudomonas aeruginosa ATCC 50071 assessed as inhibition of biofilm formation at 8 ug/ml measured after 48 hrs by crystal violet staining based assay relative to control
In experiment [14] the test system is Listeria monocytogenes. Particulars: ATCC 7644, time 48 hrs. This is another data set of the same source.
Description: Antibiofilm activity against Listeria monocytogenes ATCC 7644 assessed as inhibition of biofilm formation at 8 ug/ml measured after 48 hrs by crystal violet staining based assay relative to control
The subject of experiment [15] is Pseudomonas aeruginosa. Particulars: ATCC 50071, time 48 hrs. This is another data set of the same source.
Description: Antibiofilm activity against Pseudomonas aeruginosa ATCC 50071 assessed as inhibition of bacterial metabolism within the biofilm at 8 ug/ml measured after 48 hrs by MTT assay relative to control
Experiment [16] concerns Escherichia coli. Particulars: DSM 8579, time 48 hrs. This is another data set of the same source.
Description: Antibiofilm activity against Escherichia coli DSM 8579 assessed as inhibition of bacterial metabolism within the biofilm at 40 ug/ml measured after 48 hrs by MTT assay relative to control

As to `C=C(C)[C@@H]1CC[C@]2(C(=O)O)CC[C@]3(C)[C@H](CC[C@@H]4[C@@]5(C)CC[C@H](O)C(C)(C)[C@@H]5CC[C@]43C)[C@@H]12` [BETULINIC ACID], the values for the inhibition at 80 µg/mL in the experiment on Escherichia coli [1] and with Escherichia coli [3] were 22.6% and 54.4%, respectively. The inhibition at 4 µg/mL with Listeria monocytogenes [2] came out at 75.6%; in the experiment on Pseudomonas aeruginosa [4], 31.9%; in the experiment on Listeria monocytogenes [6], 12.7%; in the experiment on Staphylococcus aureus [8], 30.7%; with Pseudomonas aeruginosa [9], 38%; in the experiment on Staphylococcus aureus [10], 0%. In addition, the inhibition at 40 µg/mL is 33.4% in the experiment with Escherichia coli [5] and 15% in the experiment with Escherichia coli [16]. Besides, the inhibition at 8 µg/mL was 14% with Staphylococcus aureus [7]; 75.2% in the experiment with Staphylococcus aureus [11]; 18.7% with Listeria monocytogenes [12]; 63.4% in the experiment with Pseudomonas aeruginosa [13]; 80.4% in the experiment with Listeria monocytogenes [14]; 72.2% in the experiment on Pseudomonas aeruginosa [15].
As to `COc1c(C(C)C)cc2c(c1O)[C@@]1(C(=O)O)CCCC(C)(C)[C@@H]1CC2`, the inhibition at 80 µg/mL with Escherichia coli [1] worked out at 96.1%; in the experiment with Escherichia coli [3] it was 66.3%. The inhibition at 4 µg/mL in the experiment with Listeria monocytogenes [2] turned out to be 74.1%; in the experiment on Pseudomonas aeruginosa [4], 43.2%; in the experiment with Listeria monocytogenes [6] it was 4%; in the experiment on Staphylococcus aureus [8], 31.9%; in the experiment with Pseudomonas aeruginosa [9], 68.6%; in the experiment on Staphylococcus aureus [10], 0%. Further, the inhibition at 40 µg/mL in the experiment with Escherichia coli [5] came to 3.2%; in the experiment on Escherichia coli [16], 67.2%. In addition, the inhibition at 8 µg/mL with Staphylococcus aureus [7] came out at 0%; in the experiment on Staphylococcus aureus [11], 72%; in the experiment with Listeria monocytogenes [12], 6.7%; in the experiment with Pseudomonas aeruginosa [13], 81.2%; in the experiment with Listeria monocytogenes [14], 81%; in the experiment with Pseudomonas aeruginosa [15], 71.6%.
With `CC(C)c1cc2c(c(O)c1O)C1=C(CC2)C(C)(C)CCC1=O` [SAGEONE], the results for the inhibition at 80 µg/mL with Escherichia coli [1] and in the experiment with Escherichia coli [3] were 24.6% and 45.5%, respectively. The inhibition at 4 µg/mL with Listeria monocytogenes [2], with Pseudomonas aeruginosa [4], in the experiment on Listeria monocytogenes [6], in the experiment on Staphylococcus aureus [8], in the experiment with Pseudomonas aeruginosa [9] and in the experiment with Staphylococcus aureus [10] was 0% each time. In addition, the results for the inhibition at 40 µg/mL with Escherichia coli [5] and in the experiment with Escherichia coli [16] were 13.7% and 6.8%, respectively. Also, the inhibition at 8 µg/mL in the experiment on Staphylococcus aureus [7] was determined as 0%; in the experiment on Staphylococcus aureus [11] it was 0%; in the experiment with Listeria monocytogenes [12] it was 0.9%; in the experiment with Pseudomonas aeruginosa [13], 0%; in the experiment on Listeria monocytogenes [14] it was 0.9%; in the experiment with Pseudomonas aeruginosa [15], 0%.
Turning to `COc1c(C(C)C)cc2c(c1O)[C@]1(C(=O)O)CCCC(C)(C)[C@@H]1CC2` (relative stereo), the inhibition at 80 µg/mL with Escherichia coli [1] was 89.1%; in the experiment on Escherichia coli [3] it was 92.8%. The inhibition at 4 µg/mL was found to be 6.5% in the experiment on Listeria monocytogenes [2]; 27.2% in the experiment with Pseudomonas aeruginosa [4]; 6.5% in the experiment on Listeria monocytogenes [6]; 0% in the experiment on Staphylococcus aureus [8]; 27.2% in the experiment with Pseudomonas aeruginosa [9]; 0% in the experiment on Staphylococcus aureus [10]. The inhibition at 40 µg/mL in the experiment with Escherichia coli [5] turned out to be 92.6%; in the experiment with Escherichia coli [16] it was 46.3%. In addition, the inhibition at 8 µg/mL is 8% with Staphylococcus aureus [7]; 8% in the experiment on Staphylococcus aureus [11]; 17.8% with Listeria monocytogenes [12]; 46.8% in the experiment on Pseudomonas aeruginosa [13]; 17.8% with Listeria monocytogenes [14]; 46.8% with Pseudomonas aeruginosa [15].
`COc1cc2oc(-c3ccc(O)cc3)cc(=O)c2c(O)c1OC` [CIRSIMARITIN]: the inhibition at 80 µg/mL came to 50% in the experiment with Escherichia coli [1] and 65.3% in the experiment on Escherichia coli [3]. Also, the inhibition at 4 µg/mL in the experiment on Listeria monocytogenes [2] stood at 54%; in the experiment on Pseudomonas aeruginosa [4], 0%; with Listeria monocytogenes [6], 26.9%; with Staphylococcus aureus [8], 0%; with Pseudomonas aeruginosa [9], 47.9%; in the experiment with Staphylococcus aureus [10] it was 0%. Besides, the results for the inhibition at 40 µg/mL with Escherichia coli [5] and in the experiment on Escherichia coli [16] were 37.7% and 44.2%, respectively. In addition, the inhibition at 8 µg/mL in the experiment with Staphylococcus aureus [7] worked out at 52.6%; with Staphylococcus aureus [11], 6.6%; with Listeria monocytogenes [12], 39%; with Pseudomonas aeruginosa [13], 83.7%; with Listeria monocytogenes [14], 65.2%; in the experiment on Pseudomonas aeruginosa [15], 40.2%.
Regarding `CC1(C)C[C@H]2[C@H]1CC[C@]1(C)C[C@]2(O)CC[C@@H]1O`, the inhibition at 80 µg/mL with Escherichia coli [1] worked out at 57.8%; in the experiment with Escherichia coli [3], 71.9%. Also, the inhibition at 4 µg/mL turned out to be 8.7% in the experiment with Listeria monocytogenes [2]; 0% with Pseudomonas aeruginosa [4]; 31.1% with Listeria monocytogenes [6]; 0% in the experiment on Staphylococcus aureus [8]; 42.4% in the experiment with Pseudomonas aeruginosa [9]; 33.3% with Staphylococcus aureus [10]. The inhibition at 40 µg/mL in the experiment on Escherichia coli [5] is 24.3%; with Escherichia coli [16], 38.3%. Besides, the inhibition at 8 µg/mL with Staphylococcus aureus [7] turned out to be 48.6%; in the experiment with Staphylococcus aureus [11] it was 17.9%; in the experiment with Listeria monocytogenes [12] it was 42.2%; in the experiment with Pseudomonas aeruginosa [13] it was 53.6%; with Listeria monocytogenes [14] it was 25.7%; with Pseudomonas aeruginosa [15], 24.6%.
Take `CC1(C)C[C@H]2[C@H]1CC[C@@]1(C)C[C@@]2(O)CC[C@@H]1O`: the inhibition at 80 µg/mL with Escherichia coli [1] is 18.2%; with Escherichia coli [3], 23.9%. For the same compound, the inhibition at 4 µg/mL came to 14.8% with Listeria monocytogenes [2]; 0% in the experiment on Pseudomonas aeruginosa [4]; 0% in the experiment with Listeria monocytogenes [6]; 0% in the experiment on Staphylococcus aureus [8]; 0% in the experiment on Pseudomonas aeruginosa [9]; 0% with Staphylococcus aureus [10]. Further, the inhibition at 40 µg/mL in the experiment with Escherichia coli [5] and in the experiment with Escherichia coli [16] was 0% in each case. Further, the inhibition at 8 µg/mL in the experiment on Staphylococcus aureus [7] was determined as 0%; in the experiment with Staphylococcus aureus [11] it was 0%; in the experiment with Listeria monocytogenes [12] it was 23.9%; in the experiment on Pseudomonas aeruginosa [13], 4%; in the experiment with Listeria monocytogenes [14] it was 38.7%; with Pseudomonas aeruginosa [15], 4%.
In the case of `CC(C)c1cc2c(cc1O)[C@@]1(C)CCCC(C)(C)[C@@H]1CC2` [FERRUGINOL], the inhibition at 80 µg/mL in the experiment on Escherichia coli [1] came out at 24.7%; in the experiment on Escherichia coli [3], 37.5%. Also, the inhibition at 4 µg/mL with Listeria monocytogenes [2] worked out at 35.6%; with Pseudomonas aeruginosa [4], 20.3%; in the experiment on Listeria monocytogenes [6], 0%; in the experiment on Staphylococcus aureus [8], 38.5%; with Pseudomonas aeruginosa [9], 52.2%; in the experiment with Staphylococcus aureus [10], 0%. In addition, the inhibition at 40 µg/mL with Escherichia coli [5] worked out at 19.2%; in the experiment on Escherichia coli [16] it was 9.1%. Also, the inhibition at 8 µg/mL is 27.9% in the experiment with Staphylococcus aureus [7]; 44.6% in the experiment with Staphylococcus aureus [11]; 14.2% in the experiment on Listeria monocytogenes [12]; 53.2% in the experiment on Pseudomonas aeruginosa [13]; 60.9% in the experiment on Listeria monocytogenes [14]; 45.2% in the experiment with Pseudomonas aeruginosa [15].
Take `C=C1CC/C=C(/C)[C@H](O)C[C@@H]2[C@@H]1CC2(C)CO` (stereo partly specified): the results for the inhibition at 80 µg/mL with Escherichia coli [1] and with Escherichia coli [3] were 45.4% and 43.1%, respectively. Moreover, the inhibition at 4 µg/mL in the experiment on Listeria monocytogenes [2] came out at 13.7%; in the experiment with Pseudomonas aeruginosa [4] it was 27.4%; with Listeria monocytogenes [6], 22.4%; in the experiment on Staphylococcus aureus [8], 0%; with Pseudomonas aeruginosa [9], 18.2%; in the experiment with Staphylococcus aureus [10], 27.7%. Also, the inhibition at 40 µg/mL was 27.4% in the experiment on Escherichia coli [5] and 13.9% with Escherichia coli [16]. The inhibition at 8 µg/mL in the experiment with Staphylococcus aureus [7] worked out at 31.1%; with Staphylococcus aureus [11], 34.9%; in the experiment on Listeria monocytogenes [12] it was 36.8%; with Pseudomonas aeruginosa [13], 34.3%; with Listeria monocytogenes [14], 51.1%; in the experiment on Pseudomonas aeruginosa [15] it was 43.1%.
With `C=CC(C)(O)C/C=C/C(C)(C)O` (stereo unspecified), the inhibition at 80 µg/mL with Escherichia coli [1] is 64%; in the experiment on Escherichia coli [3] it was 78.6%. For the same compound, the inhibition at 4 µg/mL is 78% in the experiment with Listeria monocytogenes [2]; 68.1% in the experiment with Pseudomonas aeruginosa [4]; 9.1% in the experiment on Listeria monocytogenes [6]; 13.3% in the experiment with Staphylococcus aureus [8]; 75.9% with Pseudomonas aeruginosa [9]; 42.2% in the experiment on Staphylococcus aureus [10]. The inhibition at 40 µg/mL came out at 30.4% in the experiment with Escherichia coli [5] and 52% in the experiment on Escherichia coli [16]. Moreover, the inhibition at 8 µg/mL stood at 44.4% in the experiment with Staphylococcus aureus [7]; 40.7% in the experiment on Staphylococcus aureus [11]; 38.1% with Listeria monocytogenes [12]; 84.7% in the experiment on Pseudomonas aeruginosa [13]; 85% in the experiment with Listeria monocytogenes [14]; 71.3% in the experiment on Pseudomonas aeruginosa [15].
Turning to `CC(=O)O[C@H]1CC(C)(C)[C@@H]2CC[C@]3(C)C[C@]12CC[C@H]3O`, the inhibition at 80 µg/mL with Escherichia coli [1] worked out at 42%; in the experiment on Escherichia coli [3], 29.6%. The inhibition at 4 µg/mL turned out to be 14.6% in the experiment on Listeria monocytogenes [2]; 30.4% in the experiment with Pseudomonas aeruginosa [4]; 20.6% in the experiment on Listeria monocytogenes [6]; 3.2% in the experiment on Staphylococcus aureus [8]; 15.2% in the experiment with Pseudomonas aeruginosa [9]; 0% in the experiment with Staphylococcus aureus [10]. Also, the inhibition at 40 µg/mL in the experiment with Escherichia coli [5] and with Escherichia coli [16] was 0% each time. Moreover, the inhibition at 8 µg/mL amounted to 4.7% in the experiment with Staphylococcus aureus [7]; 16.4% in the experiment with Staphylococcus aureus [11]; 29.4% with Listeria monocytogenes [12]; 45.9% in the experiment with Pseudomonas aeruginosa [13]; 23.3% with Listeria monocytogenes [14]; 45.9% in the experiment with Pseudomonas aeruginosa [15].

In general, inhibition refers to the share of the control response that was lost under treatment.

(Values after ChEMBL document CHEMBL4813932, “Terpenoid Constituents of Perovskia artemisioides Aerial Parts with Inhibitory Effects on Bacterial Biofilm Growth” (2021).)
